Source: patent publication US20080095778A1, “Treatment Of Fungal Infections” (priority 2004, published 2008)

Key:
[1] = system: A. flavus; assay: Broth microdilution (NCCLS M38-A) checkerboard assay, A. flavus; assay type: cell-based
Procedure: (§1) Stock solutions of amphotericin B (AMB, Sigma), caspofungin (Caspo), voriconazole (VOR) and itraconazole (ITZ) were prepared according to the National Committee for Clinical Laboratory Standards (M38-A) in RPMI 1640 with glutamine broth medium, buffered to pH 7.0 with […] morpholinopropanesulphonic acid (MOPS). AMB stock solutions were prepared as a 100× series in 100% dimethyl sulfoxide (DMSO) and diluted in medium to a concentration range of 0.03125 to 16 μg/ml. Caspofungin, voriconazole and itraconazole were tested at a concentration range of 0.03125 to 1024 μg/ml, and Mycograb® (NeuTec Pharma plc) at a concentration range of 0.25 to 1024 μg/ml.
(§2) Clinical isolates of Aspergillus fumigatus (2), A. flavus (1), A. terreus (1) and A. niger (1) were obtained from the Department on Microbiology, Manchester Royal Infirmary, Manchester, UK.
(§3) An inoculum suspension was prepared in buffered RPMI with glutamine medium by probing colonies from a 7 day old Sabouraud plate. The suspension was adjusted to 0.09-0.11 (80% to 82% transmittance) for Aspergillus species, 0.15-0.17 (68% to 70% transmittance). The inoculum was diluted a further 1:2 when added to the antifungal agents in the assay (final inoculum (0.4×10^4 to 0.5×10^4). For AMB and Mycograb®, either alone or in combination, the endpoint was determined as the concentration to produce no growth (MIC-0). Microtitre plates were incubated at 37° C. without agitation for 48 hours for Aspergillus species. For caspofungin, voriconazole and itraconazole, either alone or in combination with Mycograb® antibody, the MIC endpoint was determined as the concentration resulting in a prominent decrease in turbidity (≧50% growth inhibition, MIC-2) compared to the growth control (Keele et al. 2001; Espinel-Ingroff 2003). The final inhibitory concentration (FIC) was calculated for each drug by dividing the MIC in the presence of the second drug by the MIC in its absence. For each combination, two fractions were produced which were summated to produce the fractional final inhibitory concentration. Synergy was defined by value of ≦0.5, indifference was defined by a value of >0.5 to <4.0, and antagonism was defined by a value of ≧4.0 (Matthews et al., 2003).

[2] = system: A. fumigatus CI2; assay: Broth microdilution (NCCLS M38-A) checkerboard assay, A. fumigatus CI2; assay type: cell-based, Aspergillus fumigatus
Procedure: as §1, §2, §3

[3] = system: A. terreus; assay: Broth microdilution (NCCLS M38-A) checkerboard assay, A. terreus; assay type: cell-based
Procedure: as §1, §2, §3

[4] = system: Aspergillus species; assay: Antifungal activity with Mycograb antibody, summary over the Aspergillus species examined; assay type: cell-based; conditions: summary of Tables 1-4; agent combined with Mycograb antibody
Procedure: as §3

[5] = system: A. niger; assay: Broth microdilution (NCCLS M38-A) checkerboard assay, A. niger; assay type: cell-based
Procedure: as §1, §2, §3

[6] = system: A. fumigatus; assay: Broth microdilution (NCCLS M38-A) checkerboard assay, A. fumigatus; assay type: cell-based, Aspergillus fumigatus
Procedure: as §1, §2, §3

[7] = system: Candida strains; conditions: wide variety of fungal strains (e.g. Candida species); WO 01/76627; cited from earlier work
[8] = agent alone, Table 1, no growth endpoint
[9] = amphotericin B and Mycograb combination
[10] = amphotericin B and Mycograb in combination

## C[C@@H]1[C@H](O)[C@@H](C)/C=C/C=C/C=C/C=C/C=C/C=C/C=C/[C@H](O[C@@H]2O[C@H](C)[C@@H](O)[C@H](N)[C@@H]2O)C[C@@H]2O[C@](O)(C[C@@H](O)C[C@@H](O)[C@H](O)CC[C@@H](O)C[C@@H](O)CC(=O)O[C@H]1C)C[C@H](O)[C@H]2C(=O)O [AMB, amphotericin B]
[1]; [8]
  MIC-0 of each agent, Alone: 4 µg/mL
[1]; [9]
  FICI: 2
  Outcome: Indifferent (indifference was defined by a value of >0.5 to <4.0)
[1]; [10]
  MIC-0 of each agent, Combination: 4 µg/mL
[2]; [8]
  MIC-0 of each agent, Alone: 2 µg/mL
[2]; [9]
  FICI: 0.531
  Outcome: Indifferent (indifference was defined by a value of >0.5 to <4.0)
[2]; [10]
  MIC-0 of each agent, Combination: 1 µg/mL
[3]; [8]
  MIC-0 of each agent, Alone: 4 µg/mL
[3]; [9]
  FICI: 2
  Outcome: Indifferent (indifference was defined by a value of >0.5 to <4.0)
[3]; [10]
  MIC-0 of each agent, Combination: 4 µg/mL
[3]; amphotericin B and Mycograb, MIC in combination divided by MIC alone
  FIC: 1 µg/mL
[4]
  Antifungal activity / surprising effect when used in combination with Mycograb antibody: not observed
[5]; [8]
  MIC-0 of each agent, Alone: 2 µg/mL
[5]; [9]
  FICI: 0.5
  Outcome: Indifferent (indifference was defined by a value of >0.5 to <4.0)
[5]; [10]
  MIC-0 of each agent, Combination: 1 µg/mL
[6]; [8]
  MIC-0 of each agent, Alone: 2 µg/mL
[6]; [9]
  FICI: 0.5
  Outcome: Indifferent (indifference was defined by a value of >0.5 to <4.0)
[6]; [10]
  MIC-0 of each agent, Combination: 1 µg/mL
[7]
  Efficacy of antifungal agent in the presence of the antibody: significantly enhanced
